PubChem BioAssay (NCI)
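Assay format: 96-well plates, 48-hour exposure. Here, GI50 denotes the concentration required for 50% inhibition of growth. TGI marks complete inhibition of growth.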

How the values were obtained:
Assay in all cases: NCI anticancer screen, dose series, 48 h
[1] = tested on: SK-MEL-2 melanoma
[2] = tested on: HL-60(TB) leukemia
[3] = tested on: SF-295 CNS
[4] = tested on: SF-539 CNS
[5] = tested on: SR leukemia
[6] = tested on: IGROV1 ovarian
[7] = tested on: OVCAR-3 ovarian
[8] = tested on: HCT-116 colon
[9] = tested on: BT-549 breast
[10] = tested on: SF-268 CNS
[11] = tested on: 786-0 renal
[12] = tested on: M14 melanoma
[13] = tested on: SK-MEL-28 melanoma
[14] = tested on: COLO 205 colon
[15] = tested on: HCT-15 colon
[16] = tested on: K-562 leukemia
[17] = tested on: SN12C renal
[18] = tested on: SNB-19 CNS
[19] = tested on: OVCAR-8 ovarian
[20] = tested on: HOP-62 NSCLC
[21] = tested on: MDA-MB-435
[22] = tested on: CAKI-1 renal
[23] = tested on: NCI-H460 lung
[24] = tested on: HT29 colon
[25] = tested on: A498 renal
[26] = tested on: DU-145 prostate
[27] = tested on: SNB-75 CNS

In the case of Nc1cc(-c2ccccc2)ccc1O, the GI50 [1] is reported as > 100 µM, the TGI [1] is reported as > 100 µM and the GI50 [2] is reported as 45.4 µM. The TGI [2] was > 100 µM, the GI50 [3] was 55.2 µM and the TGI [3] was > 100 µM. The GI50 [4] was > 100 µM, the TGI [4] was > 100 µM and the GI50 [5] was 33.9 µM. The TGI [5] was > 100 µM, the GI50 [6] was > 100 µM and the TGI [6] was > 100 µM. The GI50 [7] was 68.8 µM, the TGI [7] was > 100 µM and the GI50 [8] was 54.6 µM. For the same molecule, the TGI [8] was > 100 µM, the GI50 [9] was 79.3 µM and the TGI [9] was > 100 µM. For the same molecule, the GI50 [10] was 65.5 µM, the TGI [10] was > 100 µM and the GI50 [11] was > 100 µM. The TGI [11] was > 100 µM, the GI50 [12] was > 100 µM and the TGI [12] was > 100 µM. For the same molecule, the GI50 [13] was > 100 µM, the TGI [13] was > 100 µM and the GI50 [14] was > 100 µM. The TGI [14] was > 100 µM, the GI50 [15] was 68.7 µM and the TGI [15] was > 100 µM. The GI50 [16] was > 100 µM, the TGI [16] was > 100 µM and the GI50 [17] was 68.9 µM. For the same molecule, the TGI [17] was > 100 µM, the GI50 [18] was > 100 µM and the TGI [18] was > 100 µM. For the same molecule, the GI50 [19] was > 100 µM, the TGI [19] was > 100 µM and the GI50 [20] was > 100 µM. The TGI [20] was > 100 µM, the GI50 [21] was > 100 µM and the TGI [21] was > 100 µM. The GI50 [22] was 17.9 µM, the TGI [22] was 79.9 µM and the GI50 [23] was > 100 µM. For the same molecule, the TGI [23] was > 100 µM, the GI50 [24] was > 100 µM and the TGI [24] was > 100 µM. For the same molecule, the GI50 [25] was 22.7 µM, the TGI [25] was > 100 µM and the GI50 [26] was 82.3 µM. For the same molecule, the TGI [26] was > 100 µM, the GI50 [27] was > 100 µM and the TGI [27] was > 100 µM.
